Test results reported in the supplement of paper PMC10307832.

What was measured:
Assay in all cases: relative viability (nuclei count vs DMSO), 5 days (fraction); higher = more cells survive
[1] = system: 201T
Outline: (§1)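 Cells from lung cancer lines were seeded into 1536-well plates and, one day later, dosed by pin tool. Treatments were either a single drug or a fixed dose of an anchor drug with five library-drug doses (not always all listed) in √10 steps. After 5 days, nuclei were stained in a one-step fixation (final 0.05% Triton X-100, 1% formaldehyde, 1 ug/ml Hoechst) and counted on 4× images, and relative viability is the treated-to-vehicle nuclei ratio, as the median of duplicate plates.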

[2] = system: COR-L23
Outline: as §1

[3] = system: EPLC-272H
Outline: as §1

[4] = system: H3255
Outline: as §1

[5] = system: LOU-NH91
Outline: as §1

[6] = system: NCI-H1563
Outline: as §1

[7] = system: NCI-H1650
Outline: as §1

[8] = system: NCI-H1734
Outline: as §1

[9] = system: NCI-H1793
Outline: as §1

[10] = system: NCI-H1993
Outline: as §1

[11] = system: NCI-H2023
Outline: as §1

[12] = system: NCI-H2085
Outline: as §1

[13] = system: NCI-H2170
Outline: as §1

[14] = system: NCI-H2347
Outline: as §1

[15] = system: NCI-H2405
Outline: as §1

[16] = system: NCI-H3122
Outline: as §1

[17] = system: NCI-H441
Outline: as §1

[18] = system: NCI-H520
Outline: as §1

[19] = system: NCI-H647
Outline: as §1

[20] = system: PC-14
Outline: as §1

[21] = system: RERF-LC-KJ
Outline: as §1

[22] = system: SW 900
Outline: as §1

Molecule CC1(C)CCC(c2ccc(Cl)cc2)=C(CN2CCN(c3ccc(C(=O)NS(=O)(=O)c4ccc(N[C@H](CCN5CCOCC5)CSc5ccccc5)c(S(=O)(=O)C(F)(F)F)c4)cc3)CC2)C1 [Navitoclax] + Cc1nc(Nc2ncc(C(=O)Nc3c(C)cccc3Cl)s2)cc(N2CCN(CCO)CC2)n1 [Dasatinib] (partner 0.075 µM) has a relative viability ([1]; first compound 0.005 µM) of 0.603, a relative viability ([1]; first compound 0.01581 µM) of 0.662 and a relative viability ([1]; first compound 0.05 µM) of 0.587. The relative viability ([1]; first compound 0.1581 µM) was 0.592, the relative viability ([1]; first compound 0.5 µM) was 0.714 and the relative viability ([2]; first compound 0.005 µM) was 0.509. For the same molecule, the relative viability ([2]; first compound 0.01581 µM) was 0.595, the relative viability ([2]; first compound 0.05 µM) was 0.521 and the relative viability ([2]; first compound 0.1581 µM) was 0.447. The relative viability ([2]; first compound 0.5 µM) was 0.556, the relative viability ([3]; first compound 0.005 µM) was 0.372 and the relative viability ([3]; first compound 0.05 µM) was 0.359. It also gave a relative viability ([3]; first compound 0.1581 µM) of 0.361, a relative viability ([3]; first compound 0.5 µM) of 0.345 and a relative viability ([4]; first compound 0.005 µM) of 0.344. It also gave a relative viability ([4]; first compound 0.01581 µM) of 0.424, a relative viability ([4]; first compound 0.05 µM) of 0.346 and a relative viability ([4]; first compound 0.1581 µM) of 0.31. For the same molecule, the relative viability ([4]; first compound 0.5 µM) was 0.204, the relative viability ([5]; first compound 0.005 µM) was 0.522 and the relative viability ([5]; first compound 0.01581 µM) was 0.566. It also gave a relative viability ([5]; first compound 0.05 µM) of 0.454, a relative viability ([5]; first compound 0.1581 µM) of 0.5 and a relative viability ([5]; first compound 0.5 µM) of 0.377. It also gave a relative viability ([6]; first compound 0.005 µM) of 0.464, a relative viability ([6]; first compound 0.01581 µM) of 0.458 and a relative viability ([6]; first compound 0.05 µM) of 0.46. For the same molecule, the relative viability ([6]; first compound 0.1581 µM) was 0.434, the relative viability ([6]; first compound 0.5 µM) was 0.474 and the relative viability ([7]; first compound 0.005 µM) was 0.28. For the same molecule, the relative viability ([7]; first compound 0.01581 µM) was 0.38, the relative viability ([7]; first compound 0.05 µM) was 0.314 and the relative viability ([7]; first compound 0.1581 µM) was 0.277. For the same molecule, the relative viability ([7]; first compound 0.5 µM) was 0.219, the relative viability ([8]; first compound 0.005 µM) was 0.41 and the relative viability ([8]; first compound 0.01581 µM) was 0.544. It also gave a relative viability ([8]; first compound 0.1581 µM) of 0.425, a relative viability ([8]; first compound 0.5 µM) of 0.554 and a relative viability ([9]; first compound 0.005 µM) of 0.409. The relative viability ([9]; first compound 0.01581 µM) was 0.325, the relative viability ([9]; first compound 0.1581 µM) was 0.293 and the relative viability ([9]; first compound 0.5 µM) was 0.147. For the same molecule, the relative viability ([10]; first compound 0.005 µM) was 0.674, the relative viability ([10]; first compound 0.01581 µM) was 0.689 and the relative viability ([10]; first compound 0.05 µM) was 0.467. The relative viability ([10]; first compound 0.1581 µM) was 0.625, the relative viability ([10]; first compound 0.5 µM) was 0.643 and the relative viability ([11]; first compound 0.005 µM) was 0.488. It also gave a relative viability ([11]; first compound 0.01581 µM) of 0.594, a relative viability ([11]; first compound 0.05 µM) of 0.621 and a relative viability ([11]; first compound 0.1581 µM) of 0.648. It also gave a relative viability ([11]; first compound 0.5 µM) of 0.561, a relative viability ([12]; first compound 0.005 µM) of 0.234 and a relative viability ([12]; first compound 0.01581 µM) of 0.234. It also gave a relative viability ([12]; first compound 0.05 µM) of 0.199, a relative viability ([12]; first compound 0.1581 µM) of 0.228 and a relative viability ([12]; first compound 0.5 µM) of 0.315. The relative viability ([13]; first compound 0.005 µM) was 0.557, the relative viability ([13]; first compound 0.01581 µM) was 0.528 and the relative viability ([13]; first compound 0.05 µM) was 0.397. For the same molecule, the relative viability ([13]; first compound 0.1581 µM) was 0.595, the relative viability ([13]; first compound 0.5 µM) was 0.574 and the relative viability ([14]; first compound 0.005 µM) was 0.328. For the same molecule, the relative viability ([14]; first compound 0.01581 µM) was 1, the relative viability ([14]; first compound 0.1581 µM) was 0.262 and the relative viability ([14]; first compound 0.5 µM) was 0.188. The relative viability ([15]; first compound 0.005 µM) was 0.189, the relative viability ([15]; first compound 0.01581 µM) was 0.209 and the relative viability ([15]; first compound 0.05 µM) was 0.146. For the same molecule, the relative viability ([15]; first compound 0.1581 µM) was 0.196, the relative viability ([15]; first compound 0.5 µM) was 0.132 and the relative viability ([16]; first compound 0.005 µM) was 0.72. For the same molecule, the relative viability ([16]; first compound 0.01581 µM) was 0.838, the relative viability ([16]; first compound 0.05 µM) was 0.904 and the relative viability ([16]; first compound 0.1581 µM) was 0.821. It also gave a relative viability ([16]; first compound 0.5 µM) of 0.682, a relative viability ([17]; first compound 0.005 µM) of 0.739 and a relative viability ([17]; first compound 0.01581 µM) of 0.639. The relative viability ([17]; first compound 0.05 µM) was 0.549, the relative viability ([17]; first compound 0.1581 µM) was 0.632 and the relative viability ([17]; first compound 0.5 µM) was 0.637. For the same molecule, the relative viability ([18]; first compound 0.01581 µM) was 0.205, the relative viability ([18]; first compound 0.05 µM) was 0.272 and the relative viability ([18]; first compound 0.1581 µM) was 0.201. For the same molecule, the relative viability ([18]; first compound 0.5 µM) was 0.258, the relative viability ([19]; first compound 0.005 µM) was 0.15 and the relative viability ([19]; first compound 0.01581 µM) was 0.192. The relative viability ([19]; first compound 0.05 µM) was 0.173, the relative viability ([19]; first compound 0.1581 µM) was 0.17 and the relative viability ([19]; first compound 0.5 µM) was 0.315. It also gave a relative viability ([20]; first compound 0.005 µM) of 0.255, a relative viability ([20]; first compound 0.01581 µM) of 0.317 and a relative viability ([20]; first compound 0.05 µM) of 0.228. The relative viability ([20]; first compound 0.1581 µM) was 0.284, the relative viability ([20]; first compound 0.5 µM) was 0.215 and the relative viability ([21]; first compound 0.005 µM) was 0.787. For the same molecule, the relative viability ([21]; first compound 0.01581 µM) was 0.757, the relative viability ([21]; first compound 0.05 µM) was 0.817 and the relative viability ([21]; first compound 0.1581 µM) was 0.823. The relative viability ([21]; first compound 0.5 µM) was 0.918, the relative viability ([22]; first compound 0.005 µM) was 0.504 and the relative viability ([22]; first compound 0.01581 µM) was 0.537. The relative viability ([22]; first compound 0.05 µM) was 0.475, the relative viability ([22]; first compound 0.1581 µM) was 0.8 and the relative viability ([22]; first compound 0.5 µM) was 0.42.
